# Patent US8431568B2, “Aromatic heterocyclic fused indolobenzadiazepine HCV NS5B inhibitors” (Bristol-Myers Squibb Company, priority 2008, dated 2013)
# Legend:
# [1] = molecular target: T1, HCV NS5B RdRp genotype 1b (Hepatitis C virus genotype 1b, UniProt Q9WMX2); assay: Modified HCV NS5B RdRp enzyme assay (preincubation protocol); format: biochemical
# T1 construct: The protein was expressed with an 18 amino acid C-terminal truncation to enhance the solubility; made in house; host or cells: E. coli BL21(DE3), pET21a vector
# T1 sequence (Q9WMX2 2420-2992): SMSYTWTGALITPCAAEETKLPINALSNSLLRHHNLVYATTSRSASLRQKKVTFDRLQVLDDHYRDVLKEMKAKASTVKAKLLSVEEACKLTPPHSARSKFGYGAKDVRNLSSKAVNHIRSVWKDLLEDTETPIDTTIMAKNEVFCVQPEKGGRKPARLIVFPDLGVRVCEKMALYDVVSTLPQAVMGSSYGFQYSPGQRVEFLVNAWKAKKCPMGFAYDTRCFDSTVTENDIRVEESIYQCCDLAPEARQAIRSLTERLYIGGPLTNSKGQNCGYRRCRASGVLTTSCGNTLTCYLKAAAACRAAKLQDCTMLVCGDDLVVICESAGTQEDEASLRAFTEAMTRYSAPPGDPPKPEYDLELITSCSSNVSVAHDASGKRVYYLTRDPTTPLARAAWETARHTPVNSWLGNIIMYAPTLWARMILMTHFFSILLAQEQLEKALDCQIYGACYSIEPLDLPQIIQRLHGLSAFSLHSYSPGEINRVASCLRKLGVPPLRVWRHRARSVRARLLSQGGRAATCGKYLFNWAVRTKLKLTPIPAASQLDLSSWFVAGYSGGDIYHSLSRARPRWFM
# Protocol: HCV NS5B RdRp Cloning, Expression, and Purification.
# The cDNA encoding the NS5B protein of HCV, genotype 1b, was cloned into the pET21a expression vector. The protein was expressed with an 18 amino acid C-terminal truncation to enhance the solubility. The E. coli competent cell line BL21(DE3) was used for expression of the protein. Cultures were grown at 37° C. for ˜4 hours until the cultures reached an optical density of 2.0 at 600 nm. The cultures were cooled to 20° C. and induced with 1 mM IPTG. Fresh ampicillin was added to a final concentration of 50 μg/ml and the cells were grown overnight at 20° C.
# Cell pellets (3 L) were lysed for purification to yield 15-24 mgs of purified NS5B. The lysis buffer consisted of 20 mM Tris-HCl, pH 7.4, 500 mM NaCl, 0.5% triton X-100, 1 mM DTT, 1 mM EDTA, 20% glycerol, 0.5 mg/ml lysozyme, 10 mM MgCl2, 15 ug/ml deoxyribonuclease I, and Complete TM protease inhibitor tablets (Roche). After addition of the lysis buffer, frozen cell pellets were resuspended using a tissue homogenizer. To reduce the viscosity of the sample, aliquots of the lysate were sonicated on ice using a microtip attached to a Branson sonicator. The sonicated lysate was centrifuged at 100,000×g for 1 hr at 4° C. and filtered through a 0.2 μm filter unit (Corning).
# The protein was purified using three sequential chromatography steps: Heparin sepharose CL-6B, polyU sepharose 4B, and Hitrap SP sepharose (Pharmacia). The chromatography buffers were identical to the lysis buffer but contained no lysozyme, deoxyribonuclease I, MgCl2 or protease inhibitor and the NaCl concentration of the buffer was adjusted according to the requirements for charging the protein onto the column. Each column was eluted with a NaCl gradient which varied in length from 5-50 column volumes depending on the column type. After the final chromatography step, the resulting purity of the enzyme is >90% based on SDS-PAGE analysis. The enzyme was aliquoted and stored at −80° C.
# Standard HCV NS5B RdRp Enzyme Assay.
# HCV RdRp genotype 1b assays were run in a final volume of 60 μl in 96 well plates (Costar 3912). The assay buffer is composed of 20 mM Hepes, pH 7.5, 2.5 mM KCl, 2.5 mM MgCl2, 1 mM DTT, 1.6 U RNAse inhibitor (Promega N2515), 0.1 mg/ml BSA (Promega R3961), and 2% glycerol. All compounds were serially diluted (3-fold) in DMSO and diluted further in water such that the final concentration of DMSO in the assay was 2%. HCV RdRp genotype 1b enzyme was used at a final concentration of 28 nM. A polyA template was used at 6 nM, and a biotinylated oligo-dT12 primer was used at 180 nM final concentration. Template was obtained commercially (Amersham 27-4110). Biotinylated primer was prepared by Sigma Genosys. 3H-UTP was used at 0.6 μCi (0.29 μM total UTP). Reactions were initiated by the addition of enzyme, incubated at 30° C. for 60 min, and stopped by adding 25 μl of 50 mM EDTA containing SPA beads (4 μg/μl, Amersham RPNQ 0007). Plates were read on a Packard Top Count NXT after >1 hr incubation at room temperature.
# Modified HCV NS5B RdRp Enzyme Assay.
# A modified enzyme assay was performed essentially as described for the standard enzyme assay except for the following: The biotinylated oligo dT12 primer was precaptured on streptavidin-coated SPA beads by mixing primer and beads in assay buffer and incubating at room temperature for one hour. Unbound primer was removed after centrifugation. The primer-bound beads were resuspended in 20 mM Hepes buffer, pH 7.5 and used in the assay at final concentrations of 20 nM primer and 0.67 μg/μl beads. Order of addition in the assay: enzyme (14 nM) was added to diluted compound followed by the addition of a mixture of template (0.2 nM), 3H-UTP (0.6 μCi, 0.29 μM), and primer-bound beads, to initiate the reaction; concentrations given are final. Reactions were allowed to proceed for 4 hours at 30° C.
# IC50 values for compounds were determined using seven different [I]. […]
# [2] = system: HCV replicon cells; assay: HCV replicon FRET assay; format: cell-based; settings: Hepatitis C virus
# Text: To perform the HCV FRET screening assay, 96-well cell culture plates were used. The FRET peptide (Anaspec, Inc.) (Taliani et al., Anal. Biochem. 1996, 240, 60-67) contains a fluorescence donor, EDANS, near one end of the peptide and an acceptor, DABCYL, near the other end. The fluorescence of the peptide is quenched by […] resonance energy transfer (RET) between the donor and the acceptor, but as the NS3 protease cleaves the peptide the products are released from RET quenching and the fluorescence of the donor becomes apparent. The assay reagent was made as follows: 5× cell Luciferase cell culture lysis reagent from Promega (#E153A) diluted to 1× with dH2O, NaCl added to 150 mM final, the FRET peptide diluted to 20 uM final from a 2 mM stock.
# To prepare plates, HCV replicon cells, with or without a Renilla luciferase reporter gene, were trypsinized and placed into each well of a 96-well plate with titrated test compounds added in columns 3 through 12; columns 1 and 2 contained a control compound (HCV protease inhibitor), and the bottom row contained cells without compound. The plates were then placed in a CO2 incubator at 37° C.
# Subsequent to addition of the test compounds described above (FRET Assay Preparation), at various times the plate was removed and Alamar blue solution (Trek Diagnostics, #00-100) was added per well as a measure of cellular toxicity. After reading in a Cytoflour 4000 instrument (PE Biosystems), plates were rinsed with PBS and then used for FRET assay by the addition of 30 ul of the FRET peptide assay reagent described above (FRET Assay Preparation) per well. The plate was then placed into the Cytoflour 4000 instrument which had been set to 340 excite/490 emission, automatic mode for 20 cycles and the plate read in a kinetic mode. Typically, the signal to noise using an endpoint analysis after the reads was at least three-fold. Alternatively, after Alamar blue reading, plates were rinsed with PBS, 50 ul of DMEM (high glucose) without phenol red was added and plates were then used for luciferase assay using the Promega Dual-Glo Luciferase Assay System.
# Compound analysis was determined by quantification of the relative HCV replicon inhibition and the relative cytotoxicity values. To calculate cytoxicity values, the average Alamar Blue fluorescence signals from the control wells were set as 100% non-toxic. The individual signals in each of the compound test wells were then divided by the average control signal and multiplied by 100% to determine […]. To calculate the HCV replicon inhibition values, an average background value was obtained from the two wells containing the highest amount of HCV protease inhibitor at the end of the assay period. These numbers were similar to those obtained from naïve Huh-7 cells.
# The background numbers were then subtracted from the average signal obtained from the control wells and this number was used as 100% activity. The individual signals in each of the compound test wells were then divided by the averaged control values after background subtraction and multiplied by 100% to determine percent activity. EC50 values for a protease inhibitor titration were calculated as the concentration which caused a 50% reduction in FRET or luciferase activity. The two numbers generated for the compound plate, percent cytoxicity and percent activity were used to determine compounds of interest for further analysis.
SMILES,IC50 [1],EC50 [2]
"O=C(O)c1ccc2c(C3CCCCC3)c3n(c2c1)Cc1nncn1-c1ccccc1-3 [Example 1, 10-Cyclohexyl-4H-indolo[1,2-d][1,2,4]triazolo[4,3-a][1,4]benzodiazepine-7-carboxylic acid]",0.14 µM,0.91 µM
"Cc1nnc2n1-c1ccccc1-c1c(C3CCCCC3)c3ccc(C(=O)O)cc3n1C2 [Example 3, 10-Cyclohexyl-1-methyl-4H-indolo[1,2-d][1,2,4]triazolo[4,3-a][1,4]benzodiazepine-7-carboxylic acid]",0.17 µM,0.77 µM
"Cc1cn2c(n1)Cn1c(c(C3CCCCC3)c3ccc(C(=O)O)cc31)-c1ccccc1-2 [Example 7, 10-Cyclohexyl-2-methyl-4H-imidazo[1,2-a]indolo[1,2-d][1,4]benzodiazepine-7-carboxylic acid]",0.13 µM,2.85 µM
"O=C(O)c1ccc2c(C3CCCCC3)c3n(c2c1)Cc1nccn1-c1ccccc1-3 [Example 5, 10-Cyclohexyl-4H-imidazo[1,2-a]indolo[1,2-d][1,4]benzodiazepine-7-carboxylic acid]",0.026 µM,0.74 µM
"Cc1nnc2n1-c1ccccc1-c1c(C3CCCCC3)c3ccc(C(=O)NS(=O)(=O)N(C)C)cc3n1C2 [Example 4, 10-Cyclohexyl-N-((dimethylamino)sulfonyl)-1-methyl-4H-indolo[1,2-d][1,2,4]triazolo[4,3-a][1,4]benzodiazepine-7-carboxamide]",0.054 µM,0.32 µM
"Cc1cn2c(n1)Cn1c(c(C3CCCCC3)c3ccc(C(=O)NS(=O)(=O)N(C)C)cc31)-c1ccccc1-2 [Example 8, 10-Cyclohexyl-N-((dimethylamino)sulfonyl)-2-methyl-4H-imidazo[1,2-a]indolo[1,2-d][1,4]benzodiazepine-7-carboxamide]",0.033 µM,0.71 µM
"CN(C)S(=O)(=O)NC(=O)c1ccc2c(C3CCCCC3)c3n(c2c1)Cc1nccn1-c1ccccc1-3 [Example 6, 10-Cyclohexyl-N-((dimethylamino)sulfonyl)-4H-imidazo[1,2-a]indolo[1,2-d][1,4]benzodiazepine-7-carboxamide]",0.019 µM,0.39 µM
"CN(C)S(=O)(=O)NC(=O)c1ccc2c(C3CCCCC3)c3n(c2c1)Cc1nncn1-c1ccccc1-3 [Example 2, 10-Cyclohexyl-N-((dimethylamino)sulfonyl)-4H-indolo[1,2-d][1,2,4]triazolo[4,3-a][1,4]benzodiazepine-7-carboxamide]",0.02 µM,0.16 µM
